Consider one substance from patent publication US9017938B2, “Use of microrna-199b-5p in medical and diagnostic field” (Advanced Accelerator Applications, priority 2009, dated 2015).

Common to all, as to type: cell-based, human
The subject of one data set is Daoy cells. Kind of data set: Expression of differentiation and proliferation markers (real-time PCR, Western blot). As to the method: Total RNA was extracted from the cell lines using the Trizol reagent (Invitrogen). Synthesis of cDNA from total RNA (4 μg) was performed using a Super Script II First Strand Kit (Invitrogen). Real-time quantitative PCR was performed using standard protocols with an Applied Biosystems ABI PRISM 7900HT Sequence Detection system. To calculate the relative gene expression of the miR-199b-5p precursor, the relative amounts of each pre-miRNA were normalized to U6 miRNA; the other genes were normalized using the β-actin gene. Real-time PCR primers for each gene were designed using Primer Express software version 2.0 (Applied Biosystems). The primer sequences are available upon request.
Thirty μg cytosolic or nuclear lysates were loaded onto 12% polyacrilamide gels, and blotted onto polyvinylidene difluoride membranes (PVDF; BioRad, Milan, Italy). The membranes were then incubated with anti-HES1 (kind gift of Dr. Tetsuo Sudo TORAY Industries, Tebiro Kamakura, Japan), a polyclonal rabbit antibody (1:500), an anti-GSK3-β (B&D Bioscience) monoclonal antibody (1:2500), an anti-c-Myc polyclonal rabbit antibody (1:200) (Santa Cruz Biotechnology, Santa Cruz, Calif., USA), an anti-GABRA6 antibody (Santa Cruz Biotechnology, Santa Cruz, USA) (1:200), an anti-MATH3 antibody (Santa Cruz Biotechnology, Santa Cruz, USA) (1:200) and an anti-cyclin D1 (1:200) polyclonal rabbit antibody (Cell Signaling). An anti-β-actin antibody (1:1.000) (Sigma) was used as the control for equal loading of cytosolic lysates and a polyclonal anti-β-laminin antibody (1:50) (Santa Cruz Biotechnology, Santa Cruz, Calif., USA) for equal loading of nuclear lysates.

Another data set relates to D283MED cells. Kind of data set: Proliferation assay MTS, D283MED. The conditions noted are these: transient transfection vs mock-transfected cells. As to the method:
Cell proliferation was determined using the CellTiter96 AQueous Non-Radioactive Cell Proliferation Assay Kit (Promega Madison, Wis.). The cells were seeded into 96-well plates at a density of 1×10^3 cells/well in EMEM without or with FBS. After 0, 24, 48 and 72 h, MTS ([3-(4,5-dimethylthiazol-2-yl)-5-(3-carboxymethoxyphenyl)-2-(4-sulfophenyl)-2H-tetrazolium]) and PMS (phenazine methosulfate) were added to each well and after 4 h the absorbance of each well was measured at 490 nm (OD490) using Multilabel counter Victor^3 (Perkin Elmer). Each condition was performed with five wells and each experiment was repeated twice.

The subject of another data set is CD133+ Daoy cells. As to the kind of experiment: CD133 FACS analysis. As for the experimental part: The flow cytometry analysis of S-phase fractions and cell-cycle kinetics were carried out using a FACSCalibur (Becton Dickinson, San Jose, Calif.) using CELL Quest version 3.3 software. The CD133 studies were carried out using the same instrument, with antibodies from Miltenyi Biotec (Auburn, Calif.), according to the manufacturer instructions. In brief, the cells were blocked in Fc receptor blocking reagent and incubated with an anti-CD133/1 (AC133)-phycoerythrin antibody (Miltenyi Biotec), for 10 min in the dark at 4° C. The cells were then washed and resuspended in PBS. Cells expressing higher levels of CD133 than the immunoglobulin G (IgG) controls were considered positive. For analyses of the side populations, cells […] were incubated with Hoechst 33342 (5 μmol/L; Sigma) for 90 min at 37° C. in EMEM containing 2% FBS. To ensure the correct identification of the side population cells, the cells were incubated as above with the addition of 50 μM verapamil (Sigma).

The mark [1] stands for this setting: Western blot, stable 199bSC1 clone.

As for “miR-199b-5p: mature microRNA CCCAGUGUUUAGACUAUCUGUUC (SEQ ID NO:11); over-expressed from pre-miR-199b construct, e.g. stable Daoy clones 199bSC1, 199bMC1 (listed as RNA, chemistry not fully specified)”, in the data set with Daoy cells (setting [1]), the GABRA6 protein entry is “up-regulated”, the MATH3 protein entry is listed as “up-regulated”, the c-Myc protein entry is given as “decreased” and the “cyclin D1 protein” value is given as “decreased”. Besides, the “expression of pro-neural bHLH (MASH1, MATH3, NGN2)” value in the data set on Daoy cells (real-time PCR, both stable clones) is “increases in expression”. Besides, the “MAP2 mRNA expression” value in the data set with Daoy cells (real-time PCR, stable 199bSC1 and 199bMC1 clones) is “up-regulated”. The GFAP levels result with Daoy cells (real-time PCR, stable 199bSC1 clone) is given as “increased”. In the data set on Daoy cells (real-time PCR, stable clones), the “GABRA6 mRNA expression” value was “significantly over-expressed”, the c-Myc expression result is given as “decreased” and the “cyclin D1 expression” value is listed as “decreased”. Further, the proliferation result in the data set with D283MED cells is recorded as “decreased proliferation”. In addition, in the data set with CD133+ Daoy cells (stable 199bMC1 clone (wild-type cells 14.8%)), the “CD133+ cells” value amounted to 6.5%. The “CD133+ cells” value in the data set with CD133+ Daoy cells (stable 199bSC1 clone (wild-type cells 14.8%)) stood at 2.4%.
